Laboratory results taken from patent publication US9718790B2, “Triazine derivative and pharmaceutical composition having an analgesic activity comprising the same” (SHIONOGI & CO., LTD., priority 2010, dated 2017).

Biological target: human P2X3 receptor (Homo sapiens (Human), UniProt P56373)
Assay: Evaluation of human P2X3 receptor inhibitory activity (Fluo-3 calcium fluorescence, FDSS 3000, ATP stimulation);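 also: stimulus was 50 nM ATP with fluorescence followed for 3 min, and the response per well was peak post-ATP fluorescence divided by the reading at measurement start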
Type: cell-based
[1] = C6BU-1 cells stably expressing human P2X3 receptor, Fluo-3 fluorescence, FDSS 3000
[2] = human P2X3 receptor, Test Example 1
[3] = C6BU-1 cells stably expressing human P2X3 receptor

Sequence of human P2X3 receptor (P56373 whole entry): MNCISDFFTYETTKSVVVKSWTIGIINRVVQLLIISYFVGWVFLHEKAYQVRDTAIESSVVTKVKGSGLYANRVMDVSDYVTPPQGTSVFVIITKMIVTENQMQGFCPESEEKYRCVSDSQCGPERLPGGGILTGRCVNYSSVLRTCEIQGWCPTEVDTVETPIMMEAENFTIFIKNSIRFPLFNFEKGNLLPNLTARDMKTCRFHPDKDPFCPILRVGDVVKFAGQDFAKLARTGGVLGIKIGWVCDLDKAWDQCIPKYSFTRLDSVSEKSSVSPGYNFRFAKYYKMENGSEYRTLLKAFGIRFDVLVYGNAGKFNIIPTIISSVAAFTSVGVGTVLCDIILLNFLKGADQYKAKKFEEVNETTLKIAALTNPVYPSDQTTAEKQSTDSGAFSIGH

Row | Compound | IC50 [2] [nM] | IC50 [3] [nM] | further results
1 | CC(=O)NCCCn1c(=O)[nH]/c(=N\c2ccc(O[C@H](C)C(F)(F)F)cc2)n(Cc2ccc(Cl)cc2)c1=O [Compound I-1615] | – | – | IC50 [1]: 12 nM
2 | C[C@@H](C(=O)O)[C@H](C)n1c(=O)[nH]/c(=N\c2ccc3c(c2)sc(=O)n3CC(F)(F)F)n(Cc2ccc(Cl)cc2)c1=O [Compound I-1780] | – | – | IC50 [1]: 932 nM
3 | CCCOc1ccc(/N=c2\[nH]c(=O)n([C@H](C)CC(=O)O)c(=O)n2Cc2ccc(C)cc2)cc1Cl [Compound I-0880] | 49 | – | –
4 | CCc1cc2cc(/N=c3\[nH]c(=O)n(CC4COC(C)(C)OC4)c(=O)n3Cc3ccc(Cl)cc3)ccc2o1 [Compound I-2312] | 5 | – | –
5 | Cn1c(=O)[nH]/c(=N\c2ccc(Oc3cccc(C#N)n3)cc2)n(C[C@H]2CC[C@H](C)CC2)c1=O [Compound I-2446] | 1 | – | –
6 | COC(=O)[C@@H](C)Cn1c(=O)[nH]/c(=N\c2ccc(OCC(F)F)cc2)n(Cc2ccc(C)cc2)c1=O [Compound I-0847] | 31 | – | –
7 | COc1cc(/N=c2\[nH]c(=O)n(C)c(=O)n2Cc2ccc(Cl)cc2)ccc1Oc1cccc(C(=O)O)n1 [Compound I-2424] | 20 | – | –
8 | COC(=O)[C@H](C)[C@H](C)n1c(=O)[nH]/c(=N\c2ccc(CC(C)C)c(Cl)c2)n(Cc2ccc(Cl)cc2)c1=O [Compound I-1435] | – | 61 | –
9 | CCc1oc2ccc(/N=c3\[nH]c(=O)n(CCCC(=O)O)c(=O)n3Cc3ccc(Cl)cc3)cc2c1C [Compound I-1704] | – | – | IC50 [1]: 15 nM
10 | CCn1c(=O)[nH]/c(=N\c2ccc(Oc3ccc(C(=O)OC)nn3)cc2)n(Cc2ccc(Cl)cc2)c1=O [Compound I-2269] | 2 | – | –
11 | CCc1nc2ccc(/N=c3\[nH]c(=O)n(CC(C)(C)C(=O)O)c(=O)n3Cc3ccc(Cl)cc3)cc2s1 [Compound I-1578] | – | – | IC50 [1]: 6 nM
12 | O=c1[nH]/c(=N\c2ccc(Oc3ccnc(CO)c3)cc2)n(Cc2ccc(Cl)cc2)c(=O)n1CCO [Compound I-1986] | – | 16 | –
13 | Cc1ccc(Cn2c(=O)n(CCC(=O)O)c(=O)[nH]/c2=N\c2ccc(Oc3ccncc3)cc2)cc1 [Compound I-1228] | – | 9 | –
14 | COC(=O)[C@H](C)[C@H](C)n1c(=O)[nH]/c(=N\c2ccc(OCC3CC3)cc2)n(Cc2ccc(C)cc2)c1=O [Compound I-0965] | – | – | IC50 [1]: 21 nM
15 | COc1cc(/N=c2\[nH]c(=O)n([C@@H](C)[C@@H](C)C(=O)O)c(=O)n2Cc2ccc(C)cc2)ccc1CC(C)C [Compound I-1367] | – | 14 | –
16 | Cc1cc(/N=c2\[nH]c(=O)n([C@H](C)[C@@H](C)C(=O)N[C@H](C)[C@@H](O)c3ccccc3)c(=O)n2Cc2ccc(Cl)cc2)ccc1OC(C)C [Compound I-1163] | – | – | IC50 [1]: 823 nM
17 | CCOc1ccc(/N=c2\[nH]c(=O)n(C[C@H](C)C(=O)O)c(=O)n2Cc2ccc(C)cc2)cc1Br [Compound I-1179] | – | – | IC50 [1]: 33 nM
18 | CCCOc1ccc(/N=c2\[nH]c(=O)n(CCCC(=O)OCC)c(=O)n2Cc2ccc(C)cc2)cc1Cl [Compound I-0861] | 19 | – | –
19 | Cc1ccc(Cn2c(=O)n(C[C@H](C)C(=O)O)c(=O)[nH]/c2=N\c2ccc(OC(F)(F)F)c(Cl)c2)cc1 [Compound I-1033] | – | – | IC50 [1]: 67 nM
20 | CCn1c(=O)[nH]/c(=N\c2ccc(Oc3ccc(C#N)nc3)cc2)n(Cc2ccc(Cl)cn2)c1=O [Compound I-2375] | 22 | – | –
21 | Cc1ccc(Cn2c(=O)n(C)c(=O)[nH]/c2=N\c2ccc(Oc3cc(C(=O)O)ccn3)cc2)cc1 [Compound I-2343] | 19 | – | –

Row | Compound | IC50 [2] [nM] | IC50 [3] [nM] | further results
22 | Cn1c(=O)[nH]/c(=N\c2ccc(Oc3cc(C(=O)O)ncn3)cc2)n(Cc2ccc(Cl)cc2)c1=O [Compound I-2447] | 10 | – | –
23 | COCCOc1ccc(/N=c2\[nH]c(=O)n(C[C@H](C)C(=O)O)c(=O)n2Cc2ccc(Cl)cc2)cc1 [Compound I-0748] | – | 295 | –
24 | CC(=O)Nc1cc(Oc2ccc(/N=c3\[nH]c(=O)n(C)c(=O)n3Cc3ccc(Cl)cc3)cc2)ccn1 [Compound I-2431] | 18 | – | –
25 | CCOC(=O)CCn1c(=O)[nH]/c(=N\c2ccc(OC(C)C)c(C)c2)n(Cc2ccc(Cl)cc2)c1=O [Compound I-1155] | – | – | IC50 [1]: 9 nM
26 | COC(=O)[C@@H](C)[C@@H](C)n1c(=O)[nH]/c(=N\c2ccc(N3CCCCC3)cc2)n(Cc2ccc(C)cc2)c1=O [Compound I-1455] | – | 32 | –
27 | COC(=O)[C@@H](C)Cn1c(=O)[nH]/c(=N\c2ccc(COC(C)C)cc2)n(Cc2ccc(Cl)cc2)c1=O [Compound I-0656] | – | 100 | –
28 | CC(C)Oc1ccc(/N=c2\[nH]c(=O)n(Cc3ncn[nH]3)c(=O)n2Cc2ccc(Cl)cc2)cc1F [Compound I-0679] | – | 32 | –
29 | CCn1c(=O)[nH]/c(=N\c2ccc(Oc3cccc(C(N)=O)n3)cc2)n(Cc2ccc(Cl)cn2)c1=O [Compound I-2240] | 21 | – | –
30 | COC(=O)C(=O)Cn1c(=O)[nH]/c(=N\c2ccc(OC(C)C)c(C)c2)n(Cc2ccc(Cl)cc2)c1=O [Compound I-0996, 1-(4-chlorobenzyl)-6-(3-mehyl-4-isopropoxyphenylimino)-3-(2-methoxycarbonyl-2-oxoethyl)-1,3,5-triazinane-2,4-dion] | – | – | IC50 [1]: 32 nM
31 | CCOc1ccc(/N=c2\[nH]c(=O)n(C[C@H](C)C(=O)OC)c(=O)n2Cc2ccc(Cl)cc2)cc1F [Compound I-0602] | – | 20 | –
32 | O=C(O)c1cc(Oc2ccc(/N=c3\[nH]c(=O)[nH]c(=O)n3Cc3ccc(Cl)cc3)cc2F)ccn1 [Compound I-2141] | – | 7 | –
33 | CC(C)Oc1ccc(/N=c2\[nH]c(=O)n(CC3(C(=O)O)COC3)c(=O)n2Cc2ccc(Cl)cc2)cc1Cl [Compound I-1011] | – | – | IC50 [1]: 21 nM
34 | Cn1c(=O)[nH]/c(=N\c2ccc(Oc3ccnc(O)c3)cc2)n(Cc2ccc(Cl)cc2)c1=O [Compound I-1736] | – | – | IC50 [1]: 9 nM
35 | Cc1ccc(Cn2c(=O)n(C)c(=O)[nH]/c2=N\c2ccc(Oc3cc(C(N)=O)ccn3)cc2)cc1 [Compound I-2342] | 16 | – | –
36 | COC(=O)[C@@H](C)Cn1c(=O)[nH]/c(=N\c2ccc3nc(C)ccc3c2)n(Cc2ccc(C)cc2)c1=O [Compound I-1275] | – | 6 | –
37 | CCOC(=O)Cn1c(=O)[nH]/c(=N\c2ccc(Oc3nccs3)cc2)n(Cc2ccc(Cl)cc2)c1=O [Compound I-2618] | 7 | – | –
38 | Cc1cc2cc(/N=c3\[nH]c(=O)n(CCCO)c(=O)n3Cc3ccc(Cl)cc3)ccc2o1 [Compound I-2027] | – | 17 | –
39 | CCn1c(=O)[nH]/c(=N\c2ccc(Oc3cncc(C(N)=O)c3)cc2)n(Cc2ccc(F)cc2)c1=O [Compound I-2120] | – | 33 | –
40 | CC(C)Oc1ccc(/N=c2\[nH]c(=O)n(C(C)(C)C(=O)NC(CO)CO)c(=O)n2Cc2ccc(Cl)cc2)cc1Cl [Compound I-0687] | – | 12 | –
41 | CCn1c(=O)[nH]/c(=N\c2ccc(Oc3cc(C(N)=O)on3)cc2)n(Cc2ccc(Cl)cc2)c1=O [Compound I-2107] | – | 7 | –
42 | COC(=O)[C@@H](C)Cn1c(=O)[nH]/c(=N\c2ccc(CC(C)C)c(C)c2)n(Cc2ccc(C)cc2)c1=O [Compound I-1043] | – | – | IC50 [1]: 10 nM

Row | Compound | IC50 [2] [nM] | IC50 [3] [nM] | further results
43 | CCOC(=O)CCn1c(=O)[nH]/c(=N\c2ccc(Oc3ccnc(O)c3)cc2)n(Cc2ccc(Cl)cc2)c1=O [Compound I-1434] | – | 2 | –
44 | CCOC(=O)C1(Cn2c(=O)[nH]/c(=N\c3ccc4nc(CC)sc4c3)n(Cc3ccc(Cl)cc3)c2=O)CC1 [Compound I-1539] | 4 | – | –
45 | Cc1nsc(Oc2ccc(/N=c3\[nH]c(=O)n(CCO)c(=O)n3Cc3ccc(Cl)cc3)cc2)n1 [Compound I-2575] | 6 | – | –
46 | CCOC(=O)CCn1c(=O)[nH]/c(=N\c2ccc(OC(C)C)c(F)c2)n(CC2C[C@H]3CC[C@@H]2C3)c1=O (stereo partly drawn) [Compound I-1860] | – | – | IC50 [1]: 150 nM
47 | CCn1c(=O)[nH]/c(=N\c2ccc(OC3CNC=C(C(=O)OC)C3)cc2)n(Cc2ccc(Cl)cc2)c1=O (stereo not drawn) [Compound I-2138] | – | 171 | –
48 | O=c1[nH]/c(=N\c2ccc(Oc3nccs3)cc2)n(Cc2ccc(F)cc2)c(=O)n1CCCO [Compound I-2507] | 35 | – | –
49 | COCCOc1ccc(/N=c2\[nH]c(=O)n(C[C@H](C)C(=O)OC)c(=O)n2Cc2ccc(Cl)cc2)cc1Cl [Compound I-0767] | – | 88 | –
50 | CCCOc1ccc(/N=c2\[nH]c(=O)n(C[C@H](CC)C(=O)OC)c(=O)n2Cc2ccc(Cl)cc2)cc1 [Compound I-0888] | 30 | – | –
51 | Cc1oc2ccc(/N=c3\[nH]c(=O)n(C[C@H](C)C(=O)O)c(=O)n3Cc3ccc(Cl)cc3)cc2c1C [Compound I-1653] | – | – | IC50 [1]: 14 nM
52 | Cc1ccc(Cn2c(=O)n(CC(F)(F)C(=O)O)c(=O)[nH]/c2=N\c2ccc(OC(C)C)c(C)c2)cc1 [Compound I-0857] | 19 | – | –
53 | COc1cccc(Oc2ccc(/N=c3\[nH]c(=O)n(CC(CO)CO)c(=O)n3Cc3ccc(Cl)cc3)cc2)n1 [Compound I-2641] | 12 | – | –
54 | CC[C@H](C)n1c(=O)[nH]/c(=N\c2ccc(Oc3ccnc(C(=O)O)c3)cc2)n(Cc2ccc(Cl)cc2)c1=O [Compound I-2480] | 6 | – | –
55 | CCc1nc2ccc(/N=c3\[nH]c(=O)n(CCCCC(=O)OC)c(=O)n3Cc3ccc(C)cc3)cc2s1 [Compound I-2156] | – | 2 | –
56 | Cc1nc2ccc(/N=c3\[nH]c(=O)n(CCCO)c(=O)n3Cc3ccc(Cl)cc3)cc2s1 [Compound I-1619] | – | – | IC50 [1]: 6 nM
57 | COC(=O)[C@H](C)[C@H](C)n1c(=O)[nH]/c(=N\c2ccc3nc(C)ccc3c2)n(Cc2ccc(C)cc2)c1=O [Compound I-1324] | – | 9 | –
58 | CCc1nc2ccc(/N=c3\[nH]c(=O)n(C[C@H](C)NC(C)=O)c(=O)n3Cc3ccc(Cl)cc3)cc2s1 [Compound I-1665] | – | – | IC50 [1]: 7 nM
59 | C=C(C)c1ccc(Cn2c(=O)n(C[C@H](C)C(=O)OC)c(=O)[nH]/c2=N\c2ccc(OC(C)C)c(C)c2)cc1 [Compound I-0995] | – | – | IC50 [1]: 276 nM
60 | Cc1ccc(Cn2c(=O)n(CCC(=O)O)c(=O)[nH]/c2=N\c2ccc(Oc3ccc(C#N)cn3)cc2)cc1 [Compound I-2635] | 8 | – | –
61 | CCn1c(=O)[nH]/c(=N\c2ccc(Oc3ccnc(NC(=O)NC4CC4)c3)cc2)n(Cc2ccc(Cl)cc2)c1=O [Compound I-2213] | – | 2 | –
62 | COC(=O)[C@@H](C)Cn1c(=O)[nH]/c(=N\c2ccc(OC3CCCCC3)cc2)n(Cc2ccc(C)cc2)c1=O [Compound I-1219] | – | 29 | –
63 | O=c1[nH]/c(=N\c2ccc(Oc3cnsn3)cc2)n(Cc2ccc(Cl)cc2)c(=O)n1CCO [Compound I-2477] | 15 | – | –
